US20230133580A1, “MENTHOL-CONTAINING COMPOSITION” (SUNSHO PHARMACEUTICAL CO., LTD., priority 2020, published 2023)
Structures can show the parent of a compound that is named as a salt.

Legend:
[1] = l-Menthol dissolution test; format: physicochemical; details: for Dissolution: stored at 20° C.
Procedure: The solution was stored at 20° C. and evaluated based on the time during which the solution was maintained in a liquid state without solidifying.
A sample that solidified before being cooled down to 20° C. [e.g., during the process of cooling down to a temperature below the melting point of l-menthol (generally 42 to 45° C.)] or immediately (e.g., within 30 minutes) after being stored at 20° C. was rated D. A sample that was maintained as a solution for a while (e.g., more than 30 minutes) but solidified in less than 24 hours was rated C.

[2] = Encapsulation test C (interfacial tension against purified water); format: physicochemical; details: for interfacial tension: against purified water
Procedure: The interfacial tension was measured with the force tensiometer SIGMA 702 (KSV Instruments LTD).

[3] = menthol concentration ranging 70 to 50 wt %
[4] = menthol concentration ranging 60 to 50 wt %
[5] = samples containing 80 to 50 wt % l-menthol

Compound | Dissolution ([1]; l-Menthol 50, solvent 50 pbw) | Dissolution ([1]; l-Menthol 60, solvent 40 pbw) | Dissolution ([1]; l-Menthol 70, solvent 30 pbw) | ability to dissolve menthol (rating) [1, 3] | ability to dissolve menthol (rating) [1, 4] | further results
CCOCCOCC [1,2-Diethoxyethane] | A (A sample that did not solidify in 10 days or more was rated A) | A (A sample that did not solidify in 10 days or more was rated A) | A (A sample that did not solidify in 10 days or more was rated A) | A (A sample that did not solidify in 10 days or more was rated A) | – | –
CC(=O)OCCCCCCOC(C)=O [1,6-Diacetoxyhexane] | A (A sample that did not solidify in 10 days or more was rated A) | A (A sample that did not solidify in 10 days or more was rated A) | C (A sample that was maintained as a solution for a while (e.g., more than 30 minutes) but solidified in less than 24 hours was rated C) | – | A (A sample that did not solidify in 10 days or more was rated A) | –
CC(=O)OCCCCCCCCOC(C)=O [1,8-Diacetoxyoctane] | A (A sample that did not solidify in 10 days or more was rated A) | C (A sample that was maintained as a solution for a while (e.g., more than 30 minutes) but solidified in less than 24 hours was rated C) | C (A sample that was maintained as a solution for a while (e.g., more than 30 minutes) but solidified in less than 24 hours was rated C) | – | – | ability to dissolve menthol (rating) ([1]; menthol concentration of 50%): A (A sample that did not solidify in 10 days or more was rated A)
OCc1ccccc1 [Benzyl alcohol] | – | – | – | – | – | Dissolution ([1]; l-Menthol 80, solvent 20 pbw): A (A sample that did not solidify in 10 days or more was rated A)
O=C(OCc1ccccc1)c1ccccc1 [Benzyl benzoate] | B (A sample that solidified in 24 hours or more but less than 10 days was rated B) | C (A sample that was maintained as a solution for a while (e.g., more than 30 minutes) but solidified in less than 24 hours was rated C) | C (A sample that was maintained as a solution for a while (e.g., more than 30 minutes) but solidified in less than 24 hours was rated C) | – | – | ability to dissolve menthol (rating) ([1]; menthol concentration of 50%): B (A sample that solidified in 24 hours or more but less than 10 days was rated B)
CCOC(=O)/C=C/C(=O)OCC [Diethyl fumarate] | A (A sample that did not solidify in 10 days or more was rated A) | A (A sample that did not solidify in 10 days or more was rated A) | C (A sample that was maintained as a solution for a while (e.g., more than 30 minutes) but solidified in less than 24 hours was rated C) | – | A (A sample that did not solidify in 10 days or more was rated A) | –
CCOC(=O)CC(=O)OCC [Diethyl malonate] | B (A sample that solidified in 24 hours or more but less than 10 days was rated B) | B (A sample that solidified in 24 hours or more but less than 10 days was rated B) | B (A sample that solidified in 24 hours or more but less than 10 days was rated B) | – | – | interfacial tension [2, 5]: ≥ 5 mN/m; Dissolution ([1]; l-Menthol 80, solvent 20 pbw): B (A sample that solidified in 24 hours or more but less than 10 days was rated B); ability to dissolve menthol (rating) ([1]; regardless of the menthol concentration): B (A sample that solidified in 24 hours or more but less than 10 days was rated B)
CCOC(=O)CCCCCCCCC(=O)OCC [Diethyl sebacate] | A (A sample that did not solidify in 10 days or more was rated A) | A (A sample that did not solidify in 10 days or more was rated A) | A (A sample that did not solidify in 10 days or more was rated A) | A (A sample that did not solidify in 10 days or more was rated A) | – | interfacial tension ([2]; samples containing 70 to 50 wt % l-menthol): ≥ 5 mN/m; Dissolution ([1]; l-Menthol 80, solvent 20 pbw): C (A sample that was maintained as a solution for a while (e.g., more than 30 minutes) but solidified in less than 24 hours was rated C)
CCOC(=O)CCC(=O)OCC [Diethyl succinate] | A (A sample that did not solidify in 10 days or more was rated A) | A (A sample that did not solidify in 10 days or more was rated A) | A (A sample that did not solidify in 10 days or more was rated A) | A or B | – | interfacial tension [2, 5]: ≥ 5 mN/m; Interfacial tension rating ([2]; l-Menthol 50, solvent 50 pbw): A (a sample having an interfacial tension of 5 mN/m or more was rated A); Interfacial tension rating ([2]; l-Menthol 60, solvent 40 pbw): A (a sample having an interfacial tension of 5 mN/m or more was rated A); Interfacial tension rating ([2]; l-Menthol 70, solvent 30 pbw): A (a sample having an interfacial tension of 5 mN/m or more was rated A); Interfacial tension rating ([2]; l-Menthol 80, solvent 20 pbw): A (a sample having an interfacial tension of 5 mN/m or more was rated A); Dissolution ([1]; l-Menthol 80, solvent 20 pbw): C (A sample that was maintained as a solution for a while (e.g., more than 30 minutes) but solidified in less than 24 hours was rated C)
CCCCOCCOCCOCCCC [Diethylene glycol dibutyl ether] | A (A sample that did not solidify in 10 days or more was rated A) | A (A sample that did not solidify in 10 days or more was rated A) | C (A sample that was maintained as a solution for a while (e.g., more than 30 minutes) but solidified in less than 24 hours was rated C) | – | A (A sample that did not solidify in 10 days or more was rated A) | –
CC(C)COC(=O)CCCCC(=O)OCC(C)C [Diisobutyl adipate] | A (A sample that did not solidify in 10 days or more was rated A) | A (A sample that did not solidify in 10 days or more was rated A) | A (A sample that did not solidify in 10 days or more was rated A) | A (A sample that did not solidify in 10 days or more was rated A) | – | Dissolution ([1]; l-Menthol 80, solvent 20 pbw): C (A sample that was maintained as a solution for a while (e.g., more than 30 minutes) but solidified in less than 24 hours was rated C)
CCCCCCCCCC(=O)OCC [Ethyl decanoate] | A (A sample that did not solidify in 10 days or more was rated A) | A (A sample that did not solidify in 10 days or more was rated A) | C (A sample that was maintained as a solution for a while (e.g., more than 30 minutes) but solidified in less than 24 hours was rated C) | – | A (A sample that did not solidify in 10 days or more was rated A) | –
CCCCCCCCCCCC(=O)OCC [Ethyl laurate] | A (A sample that did not solidify in 10 days or more was rated A) | A (A sample that did not solidify in 10 days or more was rated A) | C (A sample that was maintained as a solution for a while (e.g., more than 30 minutes) but solidified in less than 24 hours was rated C) | – | A (A sample that did not solidify in 10 days or more was rated A) | –
CCCCCCCCCCCCCCCC(=O)OCC [Ethyl palmitate] | B (A sample that solidified in 24 hours or more but less than 10 days was rated B) | B (A sample that solidified in 24 hours or more but less than 10 days was rated B) | C (A sample that was maintained as a solution for a while (e.g., more than 30 minutes) but solidified in less than 24 hours was rated C) | – | B (A sample that solidified in 24 hours or more but less than 10 days was rated B) | –
CC(=O)OCCOC(C)=O [Ethylene glycol diacetate] | C (A sample that was maintained as a solution for a while (e.g., more than 30 minutes) but solidified in less than 24 hours was rated C) | C (A sample that was maintained as a solution for a while (e.g., more than 30 minutes) but solidified in less than 24 hours was rated C) | C (A sample that was maintained as a solution for a while (e.g., more than 30 minutes) but solidified in less than 24 hours was rated C) | – | – | –
CCCCOCCOCCCC [Ethylene glycol dibutyl ether] | A (A sample that did not solidify in 10 days or more was rated A) | A (A sample that did not solidify in 10 days or more was rated A) | A (A sample that did not solidify in 10 days or more was rated A) | A (A sample that did not solidify in 10 days or more was rated A) | – | –
CCNCCCCCCNCC [N,N′-diethyl-1,6-hexanediamine] | A (A sample that did not solidify in 10 days or more was rated A) | A (A sample that did not solidify in 10 days or more was rated A) | A (A sample that did not solidify in 10 days or more was rated A) | A (A sample that did not solidify in 10 days or more was rated A) | – | –
CCCC(=O)OCC(COC(=O)CCC)OC(=O)CCC [Tributyrin] | B (A sample that solidified in 24 hours or more but less than 10 days was rated B) | C (A sample that was maintained as a solution for a while (e.g., more than 30 minutes) but solidified in less than 24 hours was rated C) | C (A sample that was maintained as a solution for a while (e.g., more than 30 minutes) but solidified in less than 24 hours was rated C) | – | – | ability to dissolve menthol (rating) ([1]; menthol concentration of 50%): B (A sample that solidified in 24 hours or more but less than 10 days was rated B)
CCOC(=O)CC(O)(CC(=O)OCC)C(=O)OCC [Triethyl citrate] | C (A sample that was maintained as a solution for a while (e.g., more than 30 minutes) but solidified in less than 24 hours was rated C) | C (A sample that was maintained as a solution for a while (e.g., more than 30 minutes) but solidified in less than 24 hours was rated C) | C (A sample that was maintained as a solution for a while (e.g., more than 30 minutes) but solidified in less than 24 hours was rated C) | – | – | –
